In patent publication US8372336B2, “Polymeric corrosion inhibitors” (Akzo Nobel Chemicals International B.V., priority 2009, dated 2013):

Test: Bubble test, corrosion inhibition performance in brine (LPR)
Conditions: Forties synthetic brine, 55° C., CO2 saturated
Procedure: Corrosion Inhibition Performance in Brine
The tests were carried out using the well-known “bubble test” method, see for instance the discussion in NACE International, Vol. 46, No. 5, pp 46-51 (May 2007), where the corrosion rate is monitored by linear polarisation (LPR). First a baseline corrosion rate in the medium is established, and then corrosion rates with different amounts of inhibitor added are measured.
The detailed conditions for the tests were as follows:
CO2 CO2 Saturated at ambient pressure (˜0.9 bara partial pressure)
Solution 100% Typical “Forties” (North Sea water) synthetic brine as shown below:
• Chloride=42.539 mg/l • Sulphate=0 mg/l • Barium=173 mg/l • Calcium=1.979 mg/l • Strontium=351 mg/l • Magnesium=377 mg/l • Sodium=24.973 mg/l • Potassium=341 mg/l • Bicarbonate=200 mg/l Electrode Fabricated from AISI 1018 (UNS G10180), polished to 600 grit finish, degreased, rinsed, and dried Inhibitor Concentration 4 hour precorrosion without inhibitor, then dose with 10 or 20 mg/kg of inhibitor and evaluate corrosion rate for at least 8 h, then add inhibitor so that the next level of total inhibitor dosage is reached according to Table 1. After each addition the corrosion rate is measured for at least 8 h. Gas and partial Ambient pressure test. Maximum partial pressure 1 pressure bara (less saturated water vapour pressure at test temperature). Corrosion Monitoring LPR±10 mV step perturbation with a 2-minute time constant. A Stearn-Geary constant of 25 mV was used to calculate corrosion rates from LPR data. Corrosion rates were monitored throughout each test with a measurement taken every 30 minutes. […] The corrosion inhibitor bases were formulated as follows prior to testing: 40% base product 4% glacial acetic acid 20% n-butanol 36% water The % protection was calculated from the following equation: % protection=(1−(x/y))*100 wherein x=corrosion rate in the presence of corrosion inhibitor (mm/year) • y=corrosion rate in the absence of corrosion inhibitor (mm/year)

With “C12-C16 Coco benzyl quaternary amine [Quaternary amine*]” the “% Protection” value (20 ppm inhibitor) was −28.3%, the “% Protection” value (50 ppm inhibitor) was 38.0% and the “% Protection” value (100 ppm inhibitor) was 97.7%.
